Laboratory results as given in the NIST ThermoML archive (doi:10.1016/j.jct.2016.06.016).

Test: refractive index (Na D-line) (dimensionless); xn = mol fraction of the nth substance listed
Conditions: 100 kPa, Liquid, Standard Abbe refractometry

CCOC(=O)CCC(=O)OCC [diethyl butanedioate] + CCCCO
refractive index
Conditions | x1 = 0.1 | x1 = 0.2001 | x1 = 0.3 | x1 = 0.3999 | x1 = 0.5 | x1 = 0.6001 | x1 = 0.6998 | x1 = 0.7999 | x1 = 0.8997 | x1 = 1
288.15 K | 1.4042 | 1.4069 | 1.4094 | 1.4116 | 1.4137 | 1.4156 | 1.4173 | 1.419 | 1.4204 | 1.4217
293.15 K | 1.4021 | 1.4048 | 1.4072 | 1.4094 | 1.4115 | 1.4134 | 1.4151 | 1.4168 | 1.4182 | 1.4195
298.15 K | 1.4 | 1.4027 | 1.405 | 1.4073 | 1.4093 | 1.4112 | 1.4129 | 1.4146 | 1.416 | 1.4173
303.15 K | 1.3979 | 1.4005 | 1.4029 | 1.4051 | 1.4071 | 1.409 | 1.4107 | 1.4123 | 1.4138 | 1.4151
308.15 K | 1.3958 | 1.3983 | 1.4007 | 1.4029 | 1.4049 | 1.4068 | 1.4085 | 1.4101 | 1.4116 | 1.4129
313.15 K | 1.3936 | 1.3962 | 1.3985 | 1.4007 | 1.4027 | 1.4046 | 1.4063 | 1.4079 | 1.4094 | 1.4108
318.15 K | 1.3915 | 1.394 | 1.3963 | 1.3985 | 1.4005 | 1.4024 | 1.4041 | 1.4058 | 1.4073 | 1.4088
323.15 K | 1.3894 | 1.3918 | 1.3942 | 1.3963 | 1.3983 | 1.4002 | 1.402 | 1.4036 | 1.4052 | 1.4067
